According to US10736968B2, “Cellular signalling inhibitors, their formulations and methods thereof” (INVICTUS ONCOLOGY PVT. LTD., priority 2016, dated 2020):

System: 4T1 breast cancer
Test: 4T1 breast cancer model (tumor growth, lung metastatic nodules, survival)
Assay type: in vivo, Balb/c mice
Conditions: for number of metastatic nodules in lungs: lungs harvested on day 12
Source text: FIG. 7. Effect of BLN101 on breast tumor growth inhibition. To validate the therapeutic efficacy of BLN101 (as AK750 formulation), we randomly sorted mice bearing 4T1 breast cancer into four groups and treated each group with one of the following: blank vehicle (control); AK750; an antiCSF1 antibody, and BLZ945. Treatment was strated when the tumors reached −75 mm^3 in volume. The day of first injection is considered Day 0). Vehicle-treated animals formed large tumors by Day 12, and consequently were killed. The animals in the other groups were also killed at the same time point to evaluate the effect of the treatments on tumor pathology. […] (b) Changes in body weight were within the acceptable limits.
Later, macrophages are isolated from the tumors and analyzed the cells for expression of markers CD11b+CD206+, CD11b+MHC-II+, CD11b+CD86+ and CD11b+CD80+ on the cells using flow cytometry. […] The tumor-bearing animals are injected with three doses of either Vehicle (for control group), 45 mg/kg of free BLZ-945, 45 mg/kg of BLN101 (in a AK750 formulation), or 25 mg/kg of CSF-1 neutralizing antibody, on day 0, day 4 and day 8. First day of treatment was considered as Day 0. […] Number of metastatic nodules present in the lungs is also quantified. Lungs were harvested from the mice on day 12 following the above treatment, washed with cold PBS followed by which the number of metastatic nodules were counted. […] Later, macrophages are isolated from the tumors and analyzed the cells for expression of markers CD11b+CD206+, CD11b+MHC-II+, CD11b+CD86+ on the cells using flow cytometry. […] SIRPα is a ‘eat-me-not’ signaling, which cancer cells engage with a CD47 ligand, and prevents phagocytosis of the cancer cells. The antibody that inhibits SIRPα was conjugated to the PEG chains on the surface of the AK750 supramolecular nanoparticles. A non-specific IgG was used as controls. […] Furthermore, melanoma-bearing mice is treated with a single dose of SIRPα antibody, AK750 or the SIRPα-AK750. […]

| SMILES | tumor growth / progression (45 mg/kg on day 0, day 4 and day 8) | number of metastatic nodules in lungs |
| --- | --- | --- |
| CNC(=O)c1cc(Oc2ccc3nc(N[C@@H]4CCCC[C@H]4O)sc3c2)ccn1 [BLZ-945] | decreased tumor growth compared with vehicle-treated animals | reduction as compared to CSF-1 neutralizing antibody and the vehicle control |
| CNC(=O)c1cc(Oc2ccc3nc(NC4CCCC[C@H]4OC(=O)CCC(=O)O[C@H]4CC[C@@]5(C)C(=CC[C@H]6[C@@H]7CC[C@H](C(C)CCCC(C)C)[C@@]7(C)CC[C@@H]65)C4)sc3c2)ccn1 (stereo in doubt) [BLN101] | – | complete inhibition of formation of metastatic nodules |
